Paper PMC12267067, “Targeting GRPR for sex hormone-dependent cancer after loss of E-cadherin” (Nature, 2025)
No end group written: not given here.

Tests used:
GRPR, Gαq/11 activation = assay: IP1 detection (HTRF IP-one Gq kit); format: cell-based, mouse; conditions: 10 nM GRP, 30 min, 37 °C
Protocol: IP1 levels were quantified using the HTRF IP-one Gq detection kit (62IPAPEB, Revvity) following the manufacturer’s protocol. We treated 4,000 cells for 30 min at 37 °C in StimB buffer with 10 nM GRP, 1 µM RC-3095, 1 µM ICI-182,780 or DMSO. FRET signals (620 nm and 665 nm, excitation at 385 nm) were measured using a Clariostar plate reader (BMG Labtech).

[1] = system: human melanoma cell lines (MDA-MB-435S, 501mel); assay: Cell growth (cell counting), human melanoma cell lines; format: cell-based; conditions: 48 h
Protocol: Six-well tissue-culture plates were seeded with 3 × 10^5 melanoma cells in complete medium. After 24 h, the medium was replaced by low-serum medium (0.5% for murine melanoma cell lines and 1% for human melanoma cells) and the cells were incubated for a further 18 h before stimulation with 10 nM GRP (4011670 bachem) and/or 1 µM RC (R9653, Sigma-Aldrich) for 48 h. The plates were trypsinized just after stimulation or 48 h later and the cells were counted. For the MTT assay, 10,000 cells were seeded per well in 96-well plates. After 24 h, cells were starved overnight and then treated with 10 nM GRP and/or 1 µM RC for 48 h in low-serum medium (0.5% FBS). Next, MTT (M5655, Sigma-Aldrich) was added to the wells to a final concentration of 0.5 mg ml^−1 and the plates were incubated for 3 h. The medium was removed and formazan crystals dissolved in 200 µl DMSO. The absorbance was read at 570 nm using a LUMIstar Omega […] (BMG Labtech). All growth experiments were done using three technical replicates and three biological replicates. For the clonogenic assay, six-well tissue-culture plates were seeded with 500 cells in complete medium. After 10 days (20 days for 1181), colonies were fixed with 4% PFA for 15 min and stained with 10% crystal violet in ethanol for 20 min and counted in images using ImageJ software. Experiments were done in triplicate.

[2] = system: Yap1 in Grpr+ mouse melanoma cells (1057); assay: YAP1 nuclear localization (immunofluorescence); format: cell-based; conditions: 1057 cells, 1 h, 10 nM GRP and/or 1 µM RC
Protocol: Cells were seeded on coverslips and cultivated until 100% confluence was achieved. After 24 h of starvation in 0.5% FCS for murine melanoma cell lines and 1% FCS for human melanoma, the medium was complemented with 10 nM GRP and/or 1 µM RC for 1 h. Cells were fixed with 4% PFA for 15 min and blocked with 5% normal goat serum and 0.3% Triton X-100 in PBS. Cells were incubated overnight at 4 °C with anti-YAP D8H1X antibody (14074, cell Signaling, 1/100 dilution) in 1% BSA and 0.3% Triton X-100 followed by incubation for 1.5 h at room temperature with goat anti-rabbit Alexa fluor 594 (A-11012, Invitrogen, 1/500 dilution). Coverslips were mounted with Prolong Gold containing 1.5 µg ml^−1 DAPI (P36934, Invitrogen). Images were acquired using an inverted SP8 Leica confocal microscope (Leica Microsystem). YAP1 localization was evaluated using ImageJ Software.

[3] = system: mouse melanoma cells (1057, 1014, 1062); assay: Anoikis assay, mouse melanoma cells; format: cell-based; conditions: 48 h
Protocol: (§1) Six-well plates were coated with poly-HEMA to prevent cell attachment to the well surface. Cells were seeded in low-serum medium containing 10 nM GRP and/or 1 µM RC. Then, 48 hours after cell seeding, cells were collected and washed with ice-cold PBS twice and resuspended in annexin V binding buffer (556454, BD Biosciences) and incubated at room temperature in the dark with 7-amino-actinomycin D (7-AAD, 559925, BD Biosciences) and annexin-V for 15 min. Annexin V was coupled to FITC (556420, BD Biosciences) for the 1057 and MDA-MB-435S cell lines and to PE (556421, BD Biosciences) for the other cell lines. Cells were sorted using a FACS LSRFortessa (BD Biosciences) to determine the percentage of annexin V- and/or 7-AAD-positive cells using a 488 nm laser for annexin V-FITC and annexin V-PE and a 675 nm laser for7-AAD. All quantification was performed using Flow-Jo.

[4] = system: human melanoma cell lines (MDA-MB-435S, Dauv-1, 501mel-GRPR); assay: Matrigel invasion assay, human melanoma cells; format: cell-based; conditions: 10 nM GRP and/or 1 µM RC-3095, 24 h, 1% FCS
Protocol: Matrigel invasion assays were done in transwell plates with 8.0-µm pores (353097, Falcon) coated with 100 µl of 200 µg ml^−1 Matrigel. Depending on the experiments, cells were seeded directly or 24 h after transfection in low-serum medium (0.5% FCS for murine cells and 1% for human cell lines) with 10 nM GRP, 1 µM RC-3095, and/or 1 µM IC 182,780, or in 10% FCS. Then, 24 hours after stimulation, inserts were washed with PBS and non-invading cells were removed. Cells in the inserts were fixed in methanol at −20 °C overnight. The inserts were rinsed and the membrane carefully removed using a sharp scalpel. The membrane was mounted in prolong glass DAPI (1.5 µg ml^−1). Assays were performed in triplicate and automatic counting of invading cells was done using an Image/Fiji macro (10.5281/zenodo.14509394). Sequences of siRNAs are given in Supplementary Table 11.

[5] = system: human melanoma cells (MDA-MB-435S); assay: Anoikis assay, human melanoma cells; format: cell-based; conditions: 10 nM GRP and/or 1 µM RC, 48 h, poly-HEMA, low serum, annexin V/7-AAD
Protocol: as §1

## GRP: GRPR's natural agonist, endogenous ligand of GRPR (4011670 bachem) (VPLPAGGGTVLTKMYPRGNHWAVGHLM; not fully specified; ends and bridges not checked; UniProt P07492 24-50, looked up)
GRPR, Gαq/11 activation
  IP1 production, GRPR-negative cells: not GRPR-negative cells
GRPR, Gαq/11 activation; 4,000 cells, StimB buffer, 1 µM RC-3095, 1 µM ICI-182,780 (pre-treatment)
  IP1 production, GRPR-positive cells: triggered IP1 production
[1]; 501mel, 10 nM GRP, low serum
  cell growth, GRPR-negative human cells: had no effect
[1]; MDA-MB-435S, 10 nM GRP and/or 1 µM RC, low serum 1%
  cell growth, GRPR-positive human line: promoted growth
[2]
  YAP1 nuclear localization: increased
[3]; 1057, 10 nM GRP and/or 1 µM RC, poly-HEMA, low serum, annexin V/7-AAD
  anoikis resistance (apoptotic cells without matrix attachment), GRPR+ mouse cells: promoted
[3]; male ∆Ecad (1062) and female Ecad (1014) cells, 10 nM GRP
  anoikis resistance, Grpr-negative mouse cells: did not promote anoikis resistance
[4]
  invasion (number of invading cells), GRPR-positive human lines: promoted
[5]
  anoikis resistance (apoptotic cells without matrix attachment), GRPR+ human cells: promoted
